Source: paper PMC8245078, “Development of novel benzofuran-isatin conjugates as potential antiproliferative agents with apoptosis inducing mechanism in Colon cancer” (Journal of Enzyme Inhibition and Medicinal Chemistry, 2021)
Like-named read-outs stand apart in the source and are kept apart here.

Experiments:
[1] = test system: CCRF-CEM; assay type: cell-based; details: five-dose test
[2] = test system: HL60(TB); assay type: cell-based
[3] = test system: K-562; assay type: cell-based; details: K-562, five-dose test
[4] = test system: SR; assay type: cell-based; details: five-dose test
[5] = test system: EKVX; assay type: cell-based; details: five-dose test
[6] = test system: HOP-62; assay type: cell-based; details: HOP-62, five-dose test
[7] = test system: HOP-92; assay type: cell-based, human; details: HOP-92, five-dose test
[8] = test system: SF-268; assay type: cell-based; details: SF-268, five-dose test
[9] = test system: SF-295; assay type: cell-based, human; details: SF-295, five-dose test
[10] = test system: SNB-19; assay type: cell-based; details: SNB-19, five-dose test
[11] = test system: LOX IMVI; assay type: cell-based; details: five-dose test
[12] = test system: M14; assay type: cell-based; details: M14, five-dose test
[13] = test system: MDA-MB-435; assay type: cell-based; details: MDA-MB-435, five-dose test
[14] = test system: SK-MEL-2; assay type: cell-based; details: SK-MEL-2, five-dose test
[15] = test system: UACC-62; assay type: cell-based; details: UACC-62, five-dose test
[16] = test system: OVCAR-5; assay type: cell-based; details: Homo sapiens; OVCAR-5, five-dose test; read-out: LC50 (the source's name)
[17] = test system: 786-0; assay type: cell-based, human; details: 786-0, five-dose test
[18] = test system: A498; assay type: cell-based, human; details: A498, five-dose test
[19] = test system: ACHN; assay type: cell-based; details: Homo sapiens, five-dose test
[20] = test system: RXF 393; assay type: cell-based, human; details: RXF 393, five-dose test
[21] = test system: SN12C; assay type: cell-based; details: five-dose test
[22] = test system: PC-3; assay type: cell-based; details: PC-3, five-dose test
[23] = test system: DU-145; assay type: cell-based; details: Homo sapiens; DU-145, five-dose test
[24] = test system: MCF7; assay type: cell-based; details: MCF7, five-dose test
[25] = test system: MDA-MB-231/ATCC; assay type: cell-based; details: five-dose test
[26] = test system: BT-549; assay type: cell-based; details: BT-549, five-dose test
[27] = test system: T-47D; assay type: cell-based; details: Homo sapiens, T47D, five-dose test
[28] = test system: non-small cell lung cancer subpanel; assay type: cell-based, human
[29] = test system: Colon Cancer subpanel; assay type: cell-based, human
[30] = test system: CNS Cancer subpanel; assay type: cell-based, human
[31] = test system: Renal Cancer subpanel; assay type: cell-based, human
[32] = test system: Breast Cancer subpanel; assay type: cell-based, human
[33] = test system: Full panel of NCI cancer cell lines; assay type: cell-based
[34] = Homo sapiens, read-out: LC50 (the source's name)

Compound: COc1ccc2c(c1)/C(=N/NC(=O)c1oc3ccccc3c1C)C(=O)N2 [Compound 5d]
- CC50 [1, 34]: > 100 µM
- TGI [1]: >100 µM
- GI50 ([2]; Homo sapiens, HL-60, five-dose test): > 100 µM
- CC50 ([2]; Homo sapiens, HL-60, five-dose test, read-out: LC50 (the source's name)): > 100 µM
- TGI ([2]; five-dose test): >100 µM
- CC50 ([3]; Homo sapiens, K562, read-out: LC50 (the source's name)): > 100 µM
- TGI [3]: >100 µM
- CC50 [4, 34]: > 100 µM
- TGI [4]: >100 µM
- GI50 ([5]; Homo sapiens): 2.94 µM
- LC50 (concentration giving 50% net cell kill) ([5]; Homo sapiens): > 100 µM
- TGI [5]: >100 µM
- TGI [6]: 4.02 µM
- GI50 ([6]; Homo sapiens): 1.92 µM
- CC50 [6, 34]: 8.44 µM
- TGI [7]: 3.98 µM
- GI50 ([7]; Homo sapiens): 1.84 µM
- GI50 ([8]; Homo sapiens): 5.18 µM
- CC50 [8, 34]: > 100 µM
- TGI [8]: 56.8 µM
- GI50 ([9]; Homo sapiens): 2.03 µM
- TGI [9]: 4.13 µM
- GI50 ([10]; Homo sapiens): 3.45 µM
- CC50 [10, 34]: > 100 µM
- TGI [10]: 16.2 µM
- GI50 ([11]; Homo sapiens): 3.16 µM
- CC50 [11, 34]: > 100 µM
- TGI [11]: >100 µM
- CC50 [12, 34]: > 100 µM
- TGI [12]: >100 µM
- CC50 [13, 34]: > 100 µM
- TGI [13]: >100 µM
- GI50 ([14]; Homo sapiens): 2.56 µM
- LC50 ([14]; Homo sapiens): 54.7 µM
- TGI [14]: 6.62 µM
- GI50 ([15]; Homo sapiens): 5.19 µM
- CC50 [15, 34]: > 100 µM
- TGI [15]: >100 µM
- CC50 [16]: > 100 µM
- TGI [17]: 3.84 µM
- GI50 ([17]; Homo sapiens): 1.99 µM
- TGI [18]: 4.04 µM
- GI50 ([18]; Homo sapiens): 1.63 µM
- GI50 [19]: 1.77 µM
- GI50 ([20]; Homo sapiens): 1.79 µM
- TGI [20]: 3.70 µM
- GI50 ([21]; Homo sapiens): 2.82 µM
- CC50 [21, 34]: > 100 µM
- TGI [21]: >100 µM
- CC50 [22, 34]: > 100 µM
- TGI [22]: >100 µM
- LC50 [23]: > 100 µM
- CC50 [24, 34]: > 100 µM
- TGI [24]: >100 µM
- GI50 ([25]; Homo sapiens): 2.07 µM
- CC50 [25, 34]: > 100 µM
- TGI [25]: 5.10 µM
- TGI [26]: 33.7 µM
- GI50 ([26]; Homo sapiens): 5.38 µM
- LC50 (concentration causing 50% net cell kill) ([26]; Homo sapiens): > 100 µM
- GI50 [27]: 1.7 µM
- LC50 [27]: > 100 µM
- GI50 ([28]; Homo sapiens, non-small cell lung cancer subpanel, read-out: MG-MID (GI50 average of the subpanel)): 2.8 µM
- Selectivity index ([28]; full panel MID / subpanel MID, non-small cell lung cancer): 0.89
- GI50 ([29]; Homo sapiens, Colon Cancer subpanel, read-out: MG-MID (GI50 average of the subpanel)): 1.92 µM
- Selectivity index ([29]; full panel MID / subpanel MID, Colon Cancer): 1.30
- GI50 ([30]; Homo sapiens, CNS Cancer subpanel, read-out: MG-MID (GI50 average of the subpanel)): 2.6 µM
- Selectivity index ([30]; full panel MID / subpanel MID, CNS Cancer): 0.96
- GI50 ([31]; Homo sapiens, Renal Cancer subpanel, read-out: MG-MID (GI50 average of the subpanel)): 1.98 µM
- Selectivity index ([31]; full panel MID / subpanel MID, Renal Cancer): 1.26
- GI50 ([32]; Homo sapiens, Breast Cancer subpanel, read-out: MG-MID (GI50 average of the subpanel)): 2.83 µM
- Selectivity index ([32]; full panel MID / subpanel MID, Breast Cancer): 0.88
- LC50 ([33]; Homo sapiens, all cancer cell lines examined except HOP-62, SNB-75 and SK-MEL-2): > 100 µM
- GI50 ([33]; Homo sapiens, all examined cancer cell subpanels except HL60(TB), read-out: GI50 values range): 1.25 to 6.07 µM
- GI50 ([33]; Homo sapiens, average sensitivity for all cell lines, read-out: Full panel MG-MID (GI50)): 2.51 µM
- selectivity index range over subpanels ([33]; all tested subpanels): 0.78 to 1.30
- TGI ([33]; entire Leukaemia, Colon cancer and Prostate Cancer and the remaining examined cancer cell lines): more than 100 µM
